Laboratory results taken from BindingDB's records for doi:10.1021/jm00120a002 (Merck Sharp & Dohme Research Laboratories, 1989).

Columns and labels:
[1] = Half-maximal inhibition of [125I]CCK-33 binding to cholecystokinin receptor
[2] = Half-maximal inhibition of [125I]gastrin binding to guinea pig gastric glands

Row | Structure (SMILES) | IC50 [1] [µM] | IC50 [2] [µM]
1 | O=C1Nc2ccc(Cl)cc2C(c2ccccc2)=N[C@@H]1Cc1c[nH]c2ccccc12 | 3.4 | –
2 | O=C(NC1N=C(c2ccccc2)c2ccccc2NC1=O)c1ccccc1Cl (centres undefined) [2-Chloro-N-(2-oxo-5-phenyl-2,3-dihydro-1H-benzo[e][1,4]diazepin-3-yl)-benzamide. 0.02CHCl3] | – | 52
3 | CN1C(=O)C(NC(=O)c2ccc(Cl)cc2N)N=C(c2ccccc2)c2ccccc21 (centres undefined) [2-Amino-4-chloro-N-(1-methyl-2-oxo-5-phenyl-2,3-dihydro-1H-benzo[e][1,4]diazepin-3-yl)-benzamide.H2O] | – | 1.9
4 | O=C(NC1N=C(c2ccccc2)c2ccccc2NC1=O)C1Cc2ccccc2N1 (centres undefined) | – | 110
5 | CN1C(=O)[C@@H](NC(=O)c2ccccc2I)N=C(c2ccccc2)c2ccccc21 | – | 38
6 | O=C1Nc2ccccc2C(c2ccccc2F)=NC1NCc1cc2ccccc2[nH]1 (centres undefined) | – | > 10
7 | O=C(NC1N=C(c2ccccc2F)c2ccccc2NC1=O)c1ncc2ccccc2n1 (centres undefined) | – | > 10
8 | O=C(NC1N=C(c2ccccc2F)c2ccccc2NC1=O)c1ccccc1Cl (centres undefined) [2-Chloro-N-[5-(2-fluoro-phenyl)-2-oxo-2,3-dihydro-1H-benzo[e][1,4]diazepin-3-yl]-benzamide: 0.1C4H8O2] | – | 18
9 | O=C(O)CN1C(=O)C(NC(=O)c2cc3ccccc3[nH]2)N=C(c2ccccc2)c2ccccc21 (centres undefined) [CCK antagonist synthetic 20] | – | 0.65
10 | CCOC(=O)CN1C(=O)C(NC(=O)c2cc3ccccc3[nH]2)N=C(c2ccccc2F)c2ccccc21 (centres undefined) | – | 0.12
11 | CC(C)CCC(=O)N[C@H]1N=C(c2ccccc2)c2ccccc2N(C)C1=O | – | 130
12 | O=C(NC1N=C(c2ccccc2)c2ccccc2NC1=O)c1c[nH]c2ccccc12 (centres undefined) | – | 18
13 | O=C(Cc1cccc2sccc12)NC1N=C(c2ccccc2F)c2ccccc2NC1=O (centres undefined) | – | 3.9
14 | CCCCCc1ccc(C(=O)N[C@H]2N=C(c3ccccc3F)c3ccccc3N(C)C2=O)cc1 | – | 60
15 | O=C(NC1N=C(c2ccccc2F)c2ccccc2NC1=O)c1ccc(Cl)cc1 (centres undefined) | – | 14
16 | CN1C(=O)[C@@H](NC(=O)c2ccc(I)cc2)N=C(c2ccccc2F)c2ccccc21 | – | 0.53
17 | CN1C(=O)[C@@H](NC(=O)c2ccccc2I)N=C(c2ccccc2F)c2ccccc21 | – | 11
18 | CCOC(=O)CN1C(=O)C(NC=O)N=C(c2ccccc2)c2ccccc21 (centres undefined) | – | 25
19 | O=C(NC1N=C(c2ccccc2F)c2ccccc2NC1=O)c1cc2cc(O)ccc2[nH]1 (centres undefined) [5-Hydroxy-1H-indole-2-carboxylic acid [5-(2-fluoro-phenyl)-2-oxo-2,3-dihydro-1H-benzo[e][1,4]diazepin-3-yl]-amide] | – | 29
20 | CN1C(=O)[C@@H](NC(=O)c2ccc(C(F)(F)F)cc2)N=C(c2ccccc2F)c2ccccc21 | – | 0.44

Row | Structure (SMILES) | IC50 [1] [µM] | IC50 [2] [µM]
21 | CN1C(=O)C(NC(=O)c2cccc(I)c2)N=C(c2ccccc2F)c2ccccc21 (centres undefined) | – | 0.39
22 | O=C(NC1N=C(c2ccccc2)c2ccccc2NC1=O)c1ccc(C(F)(F)F)cc1 (centres undefined) | – | 36
23 | O=C(NC1N=C(c2ccccc2F)c2ccccc2NC1=O)c1ccccc1 (centres undefined) | – | 28
24 | O=C(NC1N=C(c2ccccc2)c2ccccc2NC1=O)c1cc2ccccc2[nH]1 (centres undefined) | – | 4
25 | O=C(O)CN1C(=O)C(NC(=O)c2ccc(Cl)cc2)N=C(c2ccccc2F)c2ccccc21 (centres undefined) | – | 8.2
26 | CN1C(=O)[C@@H](NC(=O)c2cc3ccccc3[nH]2)N=C(c2ccccc2F)c2ccccc21 | – | 0.028
27 | CN1C(=O)C(NC(=O)c2ccc(Br)cc2)N=C(c2ccccc2)c2ccccc21 (centres undefined) [4-Bromo-N-(1-methyl-2-oxo-5-phenyl-2,3-dihydro-1H-benzo[e][1,4]diazepin-3-yl)-benzamide:0.05C3H6O] | – | 1.7
28 | CN1C(=O)C(NC(=O)c2cc3ccccc3[nH]2)N=C(c2ccccc2F)c2ccccc21 (centres undefined) [1H-Indole-2-carboxylic acid [5-(2-fluoro-phenyl)-1-methyl-2-oxo-2,3-dihydro-1H-benzo[e][1,4]diazepin-3-yl]-amide] | – | 0.19
29 | CN1C(=O)[C@H](NC(=O)[C@H](N)Cc2ccccc2)N=C(c2ccccc2)c2ccccc21 [(R)-2-amino-N-((R)-1-methyl-2-oxo-5-phenyl-2,3-dihydro-1H-benzo[e][1,4]diazepin-3-yl)-3-phenylpropanamide] | – | 55
30 | O=C(NC1N=C(c2ccccc2)c2ccccc2NC1=O)c1ccc(Cl)c(Cl)c1 (centres undefined) | – | 25
31 | CC(C)C(=O)N[C@H]1N=C(c2ccccc2)c2ccccc2N(C)C1=O | – | 73
32 | O=C(Cc1c[nH]c2ccccc12)NC1N=C(c2ccccc2)c2ccccc2NC1=O (centres undefined) | – | 32
33 | CN1C(=O)C(NC(=O)c2ccsc2)N=C(c2ccccc2F)c2ccccc21 (centres undefined) | – | 11
34 | CCCCCc1ccc(C(=O)NC2N=C(c3ccccc3)c3ccccc3NC2=O)cc1 (centres undefined) | – | > 100
35 | CN1C(=O)[C@H](NC(=O)c2cc3ccccc3[nH]2)N=C(c2ccccc2F)c2ccccc21 | – | 0.24
36 | CN1C(=O)[C@H](NC(=O)c2ccc(C(F)(F)F)cc2)N=C(c2ccccc2)c2ccccc21 | – | 4.2
37 | CN1C(=O)[C@H](NC(=O)c2ccccc2Cl)N=C(c2ccccc2)c2ccccc21 | – | 7.5
38 | CN1C(=O)[C@@H](NC(=O)/C=C/c2ccccc2)N=C(c2ccccc2)c2ccccc21 | – | 0.18
39 | CN1C(=O)[C@@H](NC(=O)c2ccc(Cl)cc2)N=C(c2ccccc2F)c2ccccc21 | – | 0.8
40 | CN1C(=O)[C@H](NC(=O)c2ccc(Cl)cc2)N=C(c2ccccc2F)c2ccccc21 | – | 5.2

Row | Structure (SMILES) | IC50 [1] [µM] | IC50 [2] [µM]
41 | O=C(/C=C/c1ccccc1)NC1N=C(c2ccccc2F)c2ccccc2NC1=O (centres undefined) | – | 3.8
42 | O=C(NC1N=C(c2ccccc2F)c2ccccc2NC1=O)c1ccc(C(F)(F)F)cc1 (centres undefined) | – | 9.5
43 | CN1C(=O)CN=C(c2ccccc2)c2ccccc21 | – | 94
44 | CN1C(=O)[C@@H](NC(=O)c2ccc(Br)cc2)N=C(c2ccccc2F)c2ccccc21 | – | 0.68
45 | O=C(NC1N=C(c2ccccc2)c2ccccc2NC1=O)c1cc(Cl)cc(Cl)c1 (centres undefined) | – | 180
46 | CCOC(=O)CN1C(=O)C(NC(=O)c2ccccc2Cl)N=C(c2ccccc2F)c2ccccc21 (centres undefined) [[3-(2-Chloro-benzoylamino)-5-(2-fluoro-phenyl)-2-oxo-2,3-dihydro-benzo[e][1,4]diazepin-1-yl]-acetic acid ethyl ester] | – | 1.3
47 | CC(C)(C)OC(=O)N[C@H](Cc1c[nH]c2ccccc12)C(=O)NC1N=C(c2ccccc2)c2ccccc2NC1=O (some centres undefined) | – | > 100
48 | N#Cc1ccc(C(=O)NC2N=C(c3ccccc3)c3ccccc3NC2=O)cc1 (centres undefined) [4-Cyano-N-(2-oxo-5-phenyl-2,3-dihydro-1H-benzo[e][1,4]diazepin-3-yl)-benzamide] | – | 22
49 | O=C(NC1N=C(c2ccccc2)c2ccccc2NC1=O)c1ccc2ccccc2c1 (centres undefined) | – | 14
50 | CN(C(=O)c1cc2ccccc2[nH]1)C1N=C(c2ccccc2)c2ccccc2NC1=O (centres undefined) | – | > 10
51 | O=C(NC1N=C(c2ccccc2)c2ccccc2NC1=O)c1ccc(F)cc1 (centres undefined) | – | 9.4
52 | CN1C(=O)[C@H](NC(=O)C2CCCCC2)N=C(c2ccccc2)c2ccccc21 | – | 1.5
53 | CN1C(=O)C(NC(=O)c2ccc(Cl)cc2)[N+]([O-])=C(c2ccccc2F)c2ccccc21 (centres undefined) | – | 2.4
54 | O=C(NC1N=C(c2ccccc2F)c2ccccc2NC1=O)c1cc2ccccc2[nH]1 (centres undefined) | – | 4.6
55 | CN1C(=O)[C@@H](NC(=O)C(C)(C)C)N=C(c2ccccc2)c2ccccc21 | – | 13
56 | O=C(NC1N=C(c2ccccc2F)c2ccccc2NC1=O)c1cc2cc(F)ccc2[nH]1 (centres undefined) [5-Fluoro-1H-indole-2-carboxylic acid [5-(2-fluoro-phenyl)-2-oxo-2,3-dihydro-1H-benzo[e][1,4]diazepin-3-yl]-amide: 0.23CHCL3] | – | > 10
57 | O=C1Nc2ccccc2C(c2ccccc2)=NC1NCCc1c[nH]c2ccccc12 (centres undefined) | – | > 100
58 | CN1C(=O)[C@@H](NC(=O)c2ccc(Br)cc2)N=C(c2ccccc2)c2ccccc21 | – | 0.8
59 | CN1C(=O)[C@@H](NC(=O)c2ccccc2Cl)N=C(c2ccccc2)c2ccccc21 | – | 130
